#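 Test compounds were applied to cells in 96-well plates for 48 hours at 5 doses. Here, GI50 denotes the concentration required for 50% inhibition of growth. TGI: concentration producing complete growth inhibition.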 Where a SMILES comes first, the peptide text is derived from it. The star is where a group is joined. Cbz = O=C(OCc1ccccc1)*; CH2Cl = ClC*
# System: MALME-3M melanoma
# Assay: NCI anticancer screen, dose series, 48 h
SMILES,GI50,TGI
CCCN1C(=O)N(CCC)C2C1NC(=S)N2/N=C/C=C/c1ccccc1OC (stereo not given),0.694 µM,82.1 µM
COc1cc2c(c(OC)c1OC)-c1ccc(SC)c(=O)cc1C(NC=O)CC2 (stereo not given),,> 83 µM
CCSc1ncnc2c1ncn2C1OC(CO)C(O)C1O (stereo not given),9.41 µM,> 100 µM
CC[C@H]1[C@@H]2C=C[C@@H]3[C@H]4C/C=C\C(=O)NCCC[C@@H]5NC(=O)/C(=C(O)/C=C/[C@@H]4C[C@@H]3[C@H]2C[C@H]1C)C5=O,1.39 µM,2.83 µM
CN1C(=O)N(C)C2C1NN=c1s/c(=C\c3ccc(Cl)cc3Cl)c(=O)n12 (stereo not given),1.21 µM,> 81.6 µM
Cc1ccc(NC(=O)CC2CC2)cc1-c1ccc(C(=O)NCC2CC2)cc1,> 25 µM,> 25 µM
CNCC#Cc1c(F)ccc2c1/C(=C/c1[nH]ccc1OC)C(=O)N2,0.608 µM,2.55 µM
Cn1cc(C2=C(c3cn(CCCCO)c4ccccc34)C(=O)NC2=O)c2ccccc21,> 21.6 µM,> 25 µM

# System: IGROV1 ovarian
# Assay: NCI anticancer screen, dose series, 48 h
SMILES,GI50,TGI
O=C1C=CC(=O)c2cc3cc(CBr)ccc3cc21,7.75 µM,> 73.9 µM
CS(=O)(=O)CCNCc1nc(-c2ccc3ncnc(Nc4ccc(OCc5cccc(C(F)(F)F)c5)cc4)c3c2)cs1,5.4 µM,> 25 µM
CC(C)CC(NC(=O)OCc1ccccc1)C(=O)NC(Cc1ccccc1)C(=O)CCl (stereo not drawn) (Cbz-Leu-Phe-CH2Cl; configuration not given here),,4.11 µM
CCOC(=O)C(Cc1ccc(CCCC(=O)NCCC(=O)Nc2ccc3nc(C)sc3c2)cc1)C(=O)OCC,64.8 µM,> 100 µM
NCCNc1c2c(c(NCCN)c3[nH]ccc13)C(=O)c1ccccc1C2=O,1.2 µM,> 100 µM
CCOC(=O)Nc1ccc(-c2nc(-c3cccc(OCCN4CCOCC4)c3)c(-c3ccnc(Br)c3)[nH]2)cc1,3.65 µM,> 100 µM
COc1ccc(-c2nn(-c3ccc(NC(=O)c4ccc(Cl)c(Cl)c4)cc3)cc2-c2ccncc2)cc1Cl,> 50 µM,> 50 µM
C[C@@H]1CC[C@@H]2[C@@H]1[C@H](OC(=O)/C=C/c1ccccc1)[C@]1(C3CCCCC3)C[C@@H](OC(=O)CO)[C@@]2(C)O1,3.84 µM,15 µM
CCCN1C(=O)N(CCC)C2C1NC(=S)N2/N=C/C=C/c1ccccc1OC (stereo not given),0.831 µM,> 100 µM
COc1cc2c(c(OC)c1OC)-c1ccc(SC)c(=O)cc1C(NC=O)CC2 (stereo not given),,> 85.5 µM
CCSc1ncnc2c1ncn2C1OC(CO)C(O)C1O (stereo not given),0.442 µM,18.1 µM
CC[C@H]1[C@@H]2C=C[C@@H]3[C@H]4C/C=C\C(=O)NCCC[C@@H]5NC(=O)/C(=C(O)/C=C/[C@@H]4C[C@@H]3[C@H]2C[C@H]1C)C5=O,0.252 µM,0.756 µM
CN1C(=O)N(C)C2C1NN=c1s/c(=C\c3ccc(Cl)cc3Cl)c(=O)n12 (stereo not given),0.326 µM,> 50.1 µM
Cc1ccc(NC(=O)CC2CC2)cc1-c1ccc(C(=O)NCC2CC2)cc1,> 25 µM,> 25 µM
CNCC#Cc1c(F)ccc2c1/C(=C/c1[nH]ccc1OC)C(=O)N2,0.317 µM,3.15 µM
Cn1cc(C2=C(c3cn(CCCCO)c4ccccc34)C(=O)NC2=O)c2ccccc21,12.2 µM,> 22.9 µM

# System: BT-549 breast
# Assay: NCI anticancer screen, dose series, 48 h
SMILES,GI50,TGI
O=C1C=CC(=O)c2cc3cc(CBr)ccc3cc21,2.75 µM,8.96 µM
CS(=O)(=O)CCNCc1nc(-c2ccc3ncnc(Nc4ccc(OCc5cccc(C(F)(F)F)c5)cc4)c3c2)cs1,> 25 µM,> 25 µM
CC(C)CC(NC(=O)OCc1ccccc1)C(=O)NC(Cc1ccccc1)C(=O)CCl (stereo not drawn) (Cbz-Leu-Phe-CH2Cl; configuration not given here),,6.16 µM
CCOC(=O)C(Cc1ccc(CCCC(=O)NCCC(=O)Nc2ccc3nc(C)sc3c2)cc1)C(=O)OCC,23.7 µM,72.8 µM
NCCNc1c2c(c(NCCN)c3[nH]ccc13)C(=O)c1ccccc1C2=O,1.22 µM,2.62 µM
CCOC(=O)Nc1ccc(-c2nc(-c3cccc(OCCN4CCOCC4)c3)c(-c3ccnc(Br)c3)[nH]2)cc1,2.9 µM,> 100 µM
COc1ccc(-c2nn(-c3ccc(NC(=O)c4ccc(Cl)c(Cl)c4)cc3)cc2-c2ccncc2)cc1Cl,3.23 µM,> 50 µM
C[C@@H]1CC[C@@H]2[C@@H]1[C@H](OC(=O)/C=C/c1ccccc1)[C@]1(C3CCCCC3)C[C@@H](OC(=O)CO)[C@@]2(C)O1,0.0337 µM,0.729 µM
CCCN1C(=O)N(CCC)C2C1NC(=S)N2/N=C/C=C/c1ccccc1OC (stereo not given),2.77 µM,32.9 µM
COc1cc2c(c(OC)c1OC)-c1ccc(SC)c(=O)cc1C(NC=O)CC2 (stereo not given),,> 100 µM
CCSc1ncnc2c1ncn2C1OC(CO)C(O)C1O (stereo not given),0.729 µM,> 44.2 µM
CC[C@H]1[C@@H]2C=C[C@@H]3[C@H]4C/C=C\C(=O)NCCC[C@@H]5NC(=O)/C(=C(O)/C=C/[C@@H]4C[C@@H]3[C@H]2C[C@H]1C)C5=O,1.29 µM,2.74 µM
CN1C(=O)N(C)C2C1NN=c1s/c(=C\c3ccc(Cl)cc3Cl)c(=O)n12 (stereo not given),0.264 µM,12.8 µM
Cc1ccc(NC(=O)CC2CC2)cc1-c1ccc(C(=O)NCC2CC2)cc1,> 25 µM,> 25 µM
CNCC#Cc1c(F)ccc2c1/C(=C/c1[nH]ccc1OC)C(=O)N2,0.338 µM,1.54 µM
Cn1cc(C2=C(c3cn(CCCCO)c4ccccc34)C(=O)NC2=O)c2ccccc21,8.27 µM,> 19.6 µM

# — PubChem BioAssay (NCI)
